How the values were obtained:
TFK1 cells [1] = assay: Cell viability assay (CellTiter-Glo, 72 h), GI50; assay type: cell-based, human; details: Homo sapiens
Procedure: (§1) Cell viability was assessed using the CellTiter-Glo luminescent cell viability assay (Vazyme, DD1101) following the manufacturer’s instructions. Briefly, 5000 cells per well were seeded into a 96-well white bottom permeable plate. Different concentrations of drugs were added to each well. After 72 h of treatment, a mixture of CellTier reagent and serum-free culture medium was prepared at a 1:1 ratio, and 100 μL of the mixture was added to each well. After incubation at 37 °C for 15 min, the luminescence was measured using a microplate reader (Synergy H1, Biotek). All the experiments were conducted in triplicate. Cell viability (relative luminescence) was defined as the luminescence of the drug treatment relative to that of the vehicle control.

TFK1 cells [2] = details: PFKL-knockout (sgPFKL) TFK1 cells and PFKL-overexpressing (ovPFKL) HuCCT1 cells; LC-MS/MS of cell lysates; n=3 biological replicates; Supplementary Fig. 5f
[3] = system: H3K9ac and H3K27ac in TFK1 cells; assay: Immunoblot of H3K9ac and H3K27ac; assay type: cell-based, human; details: prolonged romidepsin treatment, n = 3 biological replicates, Fig. 3f
Procedure: For immunoblotting, cells were washed with ice-cold PBS and lysed in RIPA lysis buffer (supplemented with protease inhibitor and phosphatase inhibitor cocktails Ⅱ and Ⅲ) for 15 min at 4 °C. The protein concentrations of the samples were normalized using a BCA protein assay kit (Thermo). Immunoblots were performed with specific primary antibodies, followed by the addition of a fluorescein-conjugated secondary antibody, after which the proteins were detected via an Odyssey fluorescence scanner (LI-COR).

A549 cells = assay: Cell viability assay (CellTiter-Glo, 72 h), GI50; assay type: cell-based; details: Homo sapiens, A549, 72 h
Procedure: as §1

BT-549 cells = assay: Cell viability assay (CellTiter-Glo, 72 h), GI50; assay type: cell-based; details: Homo sapiens, BT-549, 72 h
Procedure: as §1

NCI-H596 cells = assay: Cell viability assay (CellTiter-Glo, 72 h), GI50; assay type: cell-based; details: Homo sapiens, Fig. 6a
Procedure: as §1

RMG-I cells = assay: Cell viability assay (CellTiter-Glo, 72 h), GI50; assay type: cell-based; details: Homo sapiens
Procedure: as §1

TOV21G cells = assay: Cell viability assay (CellTiter-Glo, 72 h), GI50; assay type: cell-based; details: Homo sapiens, Fig. 6a
Procedure: as §1

MCF7 cells = assay: Cell viability assay (CellTiter-Glo, 72 h), GI50; assay type: cell-based; details: Homo sapiens, Fig. 6a
Procedure: as §1

[4] = romidepsin combined with NS or peptide, Fig. 6c

Q: With `Cc1[nH]c2ccccc2c1CCNCc1ccc(/C=C/C(=O)NO)cc1` [Panobinostat, panobinostat] as the compound, how does the GI50 (TFK1 cells [1]; TFK1, CellTiter-Glo, Fig. 1b) read?
A: 62.7 nM

Q: And the GI50 (TFK1 cells [1]; TFK1 after interference with LHCGR si-1, Fig. 1f)?
A: 31 nM

Q: What about the GI50 (TFK1 cells [1]; TFK1 after interference with LHCGR si-2, Fig. 1f) of the same compound?
A: 28.3 nM

Q: And the GI50 (TFK1 cells [1]; TFK1 after interference with NFIA si-1, Fig. 1f)?
A: 42.7 nM

Q: What about the GI50 (TFK1 cells [1]; TFK1 after interference with NFIA si-2, Fig. 1f) of the same compound?
A: 46.6 nM

Q: What about the GI50 (TFK1 cells [1]; TFK1 after interference with PFKFB1 si-1, Fig. 1f) of the same compound?
A: 45.1 nM

Q: What about the GI50 (TFK1 cells [1]; TFK1 after interference with PFKFB1 si-2, Fig. 1f) of the same compound?
A: 60.6 nM

Q: What about the GI50 (TFK1 cells [1]; TFK1 after interference with PFKL si-1, Fig. 1f) of the same compound?
A: 605 nM

Q: And the GI50 (TFK1 cells [1]; TFK1 after interference with PFKL si-2, Fig. 1f)?
A: 402 nM

Q: What about the GI50 (TFK1 cells [1]; TFK1 expressing sgNC, Fig. 1g) of the same compound?
A: 53.9 nM

Q: What about the GI50 (TFK1 cells [1]; TFK1 expressing sgPFKL-1, Fig. 1g) of the same compound?
A: 964 nM

Q: And the GI50 (TFK1 cells [1]; TFK1 expressing sgPFKL-2, Fig. 1g)?
A: 644 nM

Q: And the GI50 (TFK1 cells [1]; TFK1 siNC, Fig. 1f)?
A: 40.1 nM

Q: Which results are given for `C/C=C1\NC(=O)[C@H]2CSSCC/C=C/[C@H](CC(=O)N[C@H](C(C)C)C(=O)N2)OC(=O)[C@H](C(C)C)NC1=O` [Romidepsin, romidepsin]?
A: cellular uptake of romidepsin with differential expression of PFKL (TFK1 cells [2]): did not affect the cellular uptake; acetylation at the H3K9 and K27 histone sites [3]: gradual increase in acetylation; GI50 (A549 cells; Fig. 6a): 5.87 nM; GI50 (A549 cells; [4]): 7.62 nM; GI50 (BT-549 cells; BT549, romidepsin combined with NS or peptide, Fig. 6c): 16.2 nM; GI50 (BT-549 cells; BT-549, Fig. 6a): 13.7 nM; GI50 (NCI-H596 cells): 0.12 nM; GI50 (RMG-I cells; Fig. 6a): 5.71 nM; GI50 (RMG-I cells; [4]): 9.48 nM; GI50 (TOV21G cells): 0.36 nM; GI50 (MCF7 cells): 0.56 nM

From PMC12518634, “The noncanonical function of liver-type phosphofructokinase potentiates the efficacy of HDAC inhibitors in cancer” (Signal Transduction and Targeted Therapy, 2025)
